The values that follow come from ChEMBL document CHEMBL2417377, “Hit-to-lead optimization and kinase selectivity of imidazo[1,2-a]quinoxalin-4-amine derived JNK1 inhibitors” (Bioorg Med Chem Lett, 2013).

In one test the test system is PC-3. Put plainly: Inhibition of KHS2 in human PC3 cell lysates at 10 uM using desthiobiotin-tagged ATP probe AX9989 followed by trypsinization by LC/MS analysis. Format: cell-free.
Test [1] has as its target Cyclin-dependent kinase 5 (Homo sapiens) (UniProt Q00535). As to the kind of experiment: Inhibition of CDK5 in human PC3 cell lysates at 10 uM using desthiobiotin-tagged ATP probe AX9989 followed by trypsinization by LC/MS analysis. Conditions: PC-3.
Test [2] concerns the target Cyclin-dependent kinase 8 (Homo sapiens) (UniProt P49336). Put plainly: Inhibition of CDK8 in human PC3 cell lysates at 10 uM using desthiobiotin-tagged ATP probe AX9989 followed by trypsinization by LC/MS analysis. Particulars: PC-3.
For test [3], the target named is Serine/threonine-protein kinase Chk2 (Homo sapiens) (UniProt O96017). As to the kind of experiment: Inhibition of CHK2 in human PC3 cell lysates at 10 uM using desthiobiotin-tagged ATP probe AX9989 followed by trypsinization by LC/MS analysis. Particulars: PC-3.
Sequence of Serine/threonine-protein kinase Chk2 (Homo sapiens) (O96017 whole entry): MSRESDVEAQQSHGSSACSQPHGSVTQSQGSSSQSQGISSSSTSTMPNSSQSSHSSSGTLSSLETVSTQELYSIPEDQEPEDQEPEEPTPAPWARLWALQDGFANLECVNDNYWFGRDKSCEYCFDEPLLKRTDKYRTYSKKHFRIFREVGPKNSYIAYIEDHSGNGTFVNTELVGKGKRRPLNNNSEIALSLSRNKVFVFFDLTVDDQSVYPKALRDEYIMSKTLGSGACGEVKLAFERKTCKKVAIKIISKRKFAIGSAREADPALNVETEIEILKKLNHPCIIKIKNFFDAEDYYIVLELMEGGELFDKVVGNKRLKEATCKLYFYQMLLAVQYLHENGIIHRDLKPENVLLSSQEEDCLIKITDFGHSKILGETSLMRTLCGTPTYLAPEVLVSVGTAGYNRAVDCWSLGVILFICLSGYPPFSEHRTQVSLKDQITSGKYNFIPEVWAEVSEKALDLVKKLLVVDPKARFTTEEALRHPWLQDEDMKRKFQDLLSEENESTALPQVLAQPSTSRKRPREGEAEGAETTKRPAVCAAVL
In test [4] the target is T1, Serine/threonine-protein kinase D2 (Homo sapiens) (UniProt Q9BZL6).
T1 sequence (whole entry): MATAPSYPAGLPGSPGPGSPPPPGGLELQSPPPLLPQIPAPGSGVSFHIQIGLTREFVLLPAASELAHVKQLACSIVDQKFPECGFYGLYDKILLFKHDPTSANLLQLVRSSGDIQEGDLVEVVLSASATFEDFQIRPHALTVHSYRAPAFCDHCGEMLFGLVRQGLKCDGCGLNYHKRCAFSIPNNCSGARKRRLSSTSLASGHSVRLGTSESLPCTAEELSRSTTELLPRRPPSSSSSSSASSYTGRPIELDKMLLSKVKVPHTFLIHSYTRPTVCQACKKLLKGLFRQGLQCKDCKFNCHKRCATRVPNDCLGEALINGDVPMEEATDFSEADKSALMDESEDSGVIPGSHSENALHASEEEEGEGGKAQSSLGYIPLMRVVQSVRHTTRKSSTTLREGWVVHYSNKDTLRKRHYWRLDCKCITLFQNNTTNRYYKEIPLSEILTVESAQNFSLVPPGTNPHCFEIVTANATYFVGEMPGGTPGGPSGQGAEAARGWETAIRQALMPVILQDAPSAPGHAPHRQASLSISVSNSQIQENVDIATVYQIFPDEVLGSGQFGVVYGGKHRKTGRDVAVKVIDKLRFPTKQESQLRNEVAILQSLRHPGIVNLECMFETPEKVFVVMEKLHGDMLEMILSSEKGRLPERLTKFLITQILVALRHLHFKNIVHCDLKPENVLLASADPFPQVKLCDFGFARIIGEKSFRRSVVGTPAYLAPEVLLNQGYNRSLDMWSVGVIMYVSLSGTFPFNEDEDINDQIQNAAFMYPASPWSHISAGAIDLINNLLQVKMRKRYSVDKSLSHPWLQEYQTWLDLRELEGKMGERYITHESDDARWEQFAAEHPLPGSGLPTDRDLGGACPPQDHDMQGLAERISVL
As to the kind of experiment: Inhibition of PKD2 in human PC3 cell lysates at 10 uM using desthiobiotin-tagged ATP probe AX9989 followed by trypsinization by LC/MS analysis. Conditions: PC-3.

For test [5], the target named is 3-phosphoinositide-dependent protein kinase 1 (Homo sapiens) (UniProt O15530). As to the kind of experiment: Inhibition of PDK1 in human PC3 cell lysates at 10 uM using desthiobiotin-tagged ATP probe AX9989 followed by trypsinization by LC/MS analysis. Particulars: PC-3.
Test [6] has as its target Serine/threonine-protein kinase WNK1 (Homo sapiens) (UniProt Q9H4A3). Put plainly: Inhibition of Wnk1 in human PC3 cell lysates at 10 uM using desthiobiotin-tagged ATP probe AX9989 followed by trypsinization by LC/MS analysis. Conditions: PC-3.
Test [7] addresses Ephrin type-A receptor 7 (Homo sapiens) (UniProt Q15375). As to the kind of experiment: Inhibition of EphA7 in human PC3 cell lysates at 10 uM using desthiobiotin-tagged ATP probe AX9989 followed by trypsinization by LC/MS analysis. Conditions: PC-3.
Test [8] deals with Ribosomal protein S6 kinase alpha-3 (Homo sapiens) (UniProt P51812). As to the kind of experiment: Inhibition of RSK2 domain2 in human PC3 cell lysates at 10 uM using desthiobiotin-tagged ATP probe AX9989 followed by trypsinization by LC/MS analysis. Conditions: PC-3.
Test [9] deals with Cyclin-dependent kinase 14 (Homo sapiens) (UniProt O94921). As to the kind of experiment: Inhibition of PFTAIRE1 in human PC3 cell lysates at 10 uM using desthiobiotin-tagged ATP probe AX9989 followed by trypsinization by LC/MS analysis. Particulars: PC-3.
Sequence of Cyclin-dependent kinase 14 (Homo sapiens) (O94921 whole entry): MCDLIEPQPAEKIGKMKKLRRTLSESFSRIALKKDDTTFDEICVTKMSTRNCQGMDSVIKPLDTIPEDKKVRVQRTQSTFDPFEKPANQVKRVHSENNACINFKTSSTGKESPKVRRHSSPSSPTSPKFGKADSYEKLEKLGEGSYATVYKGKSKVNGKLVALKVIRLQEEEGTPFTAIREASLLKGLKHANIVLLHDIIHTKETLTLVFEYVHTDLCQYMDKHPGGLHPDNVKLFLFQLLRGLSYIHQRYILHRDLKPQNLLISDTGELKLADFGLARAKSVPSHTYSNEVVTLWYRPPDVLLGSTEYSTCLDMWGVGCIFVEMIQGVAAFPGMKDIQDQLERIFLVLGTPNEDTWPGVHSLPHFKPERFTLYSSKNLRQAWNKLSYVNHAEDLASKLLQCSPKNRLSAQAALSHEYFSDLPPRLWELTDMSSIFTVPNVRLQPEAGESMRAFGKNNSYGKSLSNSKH
Test [10] concerns the target Mitogen-activated protein kinase kinase kinase 11 (Homo sapiens) (UniProt Q16584). As to the kind of experiment: Inhibition of MLK3 in human PC3 cell lysates at 10 uM using desthiobiotin-tagged ATP probe AX9989 followed by trypsinization by LC/MS analysis. Conditions: PC-3.
Test [11] deals with Casein kinase I delta/epsilon (Homo sapiens) (UniProt P48730+P49674). As to the kind of experiment: Inhibition of CK1delta/CK1epsilon in human PC3 cell lysates at 10 uM using desthiobiotin-tagged ATP probe AX9989 followed by trypsinization by LC/MS analysis. Format: protein-complex assay. Conditions: PC-3.
Test [12] has as its target Phosphatidylinositol 4-kinase beta (Homo sapiens) (UniProt Q9UBF8). Put plainly: Inhibition of PI4KB in human PC3 cell lysates at 10 uM using desthiobiotin-tagged ATP probe AX9989 followed by trypsinization by LC/MS analysis. Particulars: PC-3.

Sequence of Serine/threonine-protein kinase WNK1 (Homo sapiens) (Q9H4A3 whole entry, looked up): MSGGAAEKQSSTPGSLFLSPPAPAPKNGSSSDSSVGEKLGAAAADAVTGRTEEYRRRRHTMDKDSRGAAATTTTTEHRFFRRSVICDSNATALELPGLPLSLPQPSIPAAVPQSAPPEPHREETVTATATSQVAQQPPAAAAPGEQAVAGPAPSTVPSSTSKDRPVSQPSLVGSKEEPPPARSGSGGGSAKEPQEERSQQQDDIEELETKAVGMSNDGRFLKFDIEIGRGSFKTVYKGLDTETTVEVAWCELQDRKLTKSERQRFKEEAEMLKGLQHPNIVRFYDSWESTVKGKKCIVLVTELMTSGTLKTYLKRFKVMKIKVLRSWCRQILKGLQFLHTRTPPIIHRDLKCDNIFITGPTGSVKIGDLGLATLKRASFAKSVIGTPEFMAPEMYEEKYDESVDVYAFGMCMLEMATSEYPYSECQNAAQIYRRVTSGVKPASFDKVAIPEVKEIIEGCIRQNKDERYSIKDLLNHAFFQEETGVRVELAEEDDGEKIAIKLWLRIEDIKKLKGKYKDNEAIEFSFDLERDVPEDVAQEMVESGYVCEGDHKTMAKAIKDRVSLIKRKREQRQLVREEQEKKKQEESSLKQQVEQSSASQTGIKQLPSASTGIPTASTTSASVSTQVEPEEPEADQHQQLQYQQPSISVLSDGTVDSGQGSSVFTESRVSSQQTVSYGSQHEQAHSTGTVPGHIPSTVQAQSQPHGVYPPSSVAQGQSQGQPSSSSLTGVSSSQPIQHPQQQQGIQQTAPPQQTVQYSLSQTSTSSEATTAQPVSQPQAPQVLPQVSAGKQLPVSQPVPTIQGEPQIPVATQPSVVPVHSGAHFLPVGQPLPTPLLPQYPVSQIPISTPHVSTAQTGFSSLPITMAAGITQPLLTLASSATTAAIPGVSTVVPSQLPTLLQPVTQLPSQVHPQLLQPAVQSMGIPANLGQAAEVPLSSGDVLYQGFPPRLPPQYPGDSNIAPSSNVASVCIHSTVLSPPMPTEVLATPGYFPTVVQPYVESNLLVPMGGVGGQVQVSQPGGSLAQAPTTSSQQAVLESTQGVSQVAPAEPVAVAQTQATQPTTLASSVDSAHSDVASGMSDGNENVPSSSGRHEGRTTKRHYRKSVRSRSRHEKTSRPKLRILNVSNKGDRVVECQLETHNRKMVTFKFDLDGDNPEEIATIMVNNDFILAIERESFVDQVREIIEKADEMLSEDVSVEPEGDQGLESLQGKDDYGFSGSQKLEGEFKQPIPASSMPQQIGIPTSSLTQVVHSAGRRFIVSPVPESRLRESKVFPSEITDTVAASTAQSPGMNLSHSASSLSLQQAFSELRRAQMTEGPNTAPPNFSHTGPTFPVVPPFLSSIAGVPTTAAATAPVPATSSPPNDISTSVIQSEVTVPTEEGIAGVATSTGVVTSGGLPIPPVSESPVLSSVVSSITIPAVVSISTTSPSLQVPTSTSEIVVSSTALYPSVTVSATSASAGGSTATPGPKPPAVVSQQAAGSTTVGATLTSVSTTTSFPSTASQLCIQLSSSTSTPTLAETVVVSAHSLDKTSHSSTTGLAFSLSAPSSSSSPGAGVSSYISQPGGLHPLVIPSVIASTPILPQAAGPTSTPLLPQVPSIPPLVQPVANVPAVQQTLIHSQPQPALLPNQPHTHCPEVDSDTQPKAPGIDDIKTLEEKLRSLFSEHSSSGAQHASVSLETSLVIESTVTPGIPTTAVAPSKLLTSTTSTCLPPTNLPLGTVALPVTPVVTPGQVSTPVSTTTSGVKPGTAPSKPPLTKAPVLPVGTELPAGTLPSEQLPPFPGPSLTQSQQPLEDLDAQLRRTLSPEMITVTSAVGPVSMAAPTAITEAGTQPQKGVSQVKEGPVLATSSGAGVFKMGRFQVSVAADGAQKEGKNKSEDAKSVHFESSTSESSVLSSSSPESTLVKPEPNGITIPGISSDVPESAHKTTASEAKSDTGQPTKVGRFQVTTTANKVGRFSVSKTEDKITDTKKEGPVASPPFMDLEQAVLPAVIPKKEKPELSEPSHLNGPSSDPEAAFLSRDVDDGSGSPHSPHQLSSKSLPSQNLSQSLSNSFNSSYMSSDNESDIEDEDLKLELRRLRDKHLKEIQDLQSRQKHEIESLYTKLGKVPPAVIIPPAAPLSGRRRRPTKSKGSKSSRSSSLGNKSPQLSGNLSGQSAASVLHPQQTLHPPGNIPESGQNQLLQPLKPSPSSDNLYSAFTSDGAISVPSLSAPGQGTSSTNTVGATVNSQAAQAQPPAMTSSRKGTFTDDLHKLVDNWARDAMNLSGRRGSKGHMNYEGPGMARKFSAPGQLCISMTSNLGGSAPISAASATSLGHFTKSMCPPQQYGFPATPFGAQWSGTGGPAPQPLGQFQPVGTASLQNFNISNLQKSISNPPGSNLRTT
Sequence of Mitogen-activated protein kinase kinase kinase 11 (Homo sapiens) (Q16584 whole entry, looked up): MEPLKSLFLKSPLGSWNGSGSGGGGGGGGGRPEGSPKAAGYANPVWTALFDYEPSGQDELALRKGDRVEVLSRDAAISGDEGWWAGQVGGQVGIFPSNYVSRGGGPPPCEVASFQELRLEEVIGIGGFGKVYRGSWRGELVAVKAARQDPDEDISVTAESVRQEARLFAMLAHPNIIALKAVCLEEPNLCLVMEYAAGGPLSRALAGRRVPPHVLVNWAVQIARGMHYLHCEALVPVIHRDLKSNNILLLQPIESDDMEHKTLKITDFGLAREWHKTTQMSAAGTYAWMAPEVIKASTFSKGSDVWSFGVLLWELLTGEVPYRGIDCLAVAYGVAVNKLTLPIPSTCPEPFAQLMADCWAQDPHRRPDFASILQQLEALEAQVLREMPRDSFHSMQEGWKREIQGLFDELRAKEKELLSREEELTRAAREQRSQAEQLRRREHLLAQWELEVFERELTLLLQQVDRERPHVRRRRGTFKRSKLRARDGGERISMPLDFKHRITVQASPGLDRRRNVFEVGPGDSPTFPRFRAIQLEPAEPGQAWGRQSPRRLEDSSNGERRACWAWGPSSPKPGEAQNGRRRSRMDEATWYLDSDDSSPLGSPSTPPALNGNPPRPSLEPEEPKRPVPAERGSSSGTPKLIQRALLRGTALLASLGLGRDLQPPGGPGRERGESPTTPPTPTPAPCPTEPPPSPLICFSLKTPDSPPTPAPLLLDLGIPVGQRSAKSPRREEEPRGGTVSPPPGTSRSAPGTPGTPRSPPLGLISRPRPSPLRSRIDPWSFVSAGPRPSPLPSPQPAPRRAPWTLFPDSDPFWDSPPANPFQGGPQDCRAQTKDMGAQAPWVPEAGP
Sequence of Phosphatidylinositol 4-kinase beta (Homo sapiens) (Q9UBF8 2-816 limits assumed): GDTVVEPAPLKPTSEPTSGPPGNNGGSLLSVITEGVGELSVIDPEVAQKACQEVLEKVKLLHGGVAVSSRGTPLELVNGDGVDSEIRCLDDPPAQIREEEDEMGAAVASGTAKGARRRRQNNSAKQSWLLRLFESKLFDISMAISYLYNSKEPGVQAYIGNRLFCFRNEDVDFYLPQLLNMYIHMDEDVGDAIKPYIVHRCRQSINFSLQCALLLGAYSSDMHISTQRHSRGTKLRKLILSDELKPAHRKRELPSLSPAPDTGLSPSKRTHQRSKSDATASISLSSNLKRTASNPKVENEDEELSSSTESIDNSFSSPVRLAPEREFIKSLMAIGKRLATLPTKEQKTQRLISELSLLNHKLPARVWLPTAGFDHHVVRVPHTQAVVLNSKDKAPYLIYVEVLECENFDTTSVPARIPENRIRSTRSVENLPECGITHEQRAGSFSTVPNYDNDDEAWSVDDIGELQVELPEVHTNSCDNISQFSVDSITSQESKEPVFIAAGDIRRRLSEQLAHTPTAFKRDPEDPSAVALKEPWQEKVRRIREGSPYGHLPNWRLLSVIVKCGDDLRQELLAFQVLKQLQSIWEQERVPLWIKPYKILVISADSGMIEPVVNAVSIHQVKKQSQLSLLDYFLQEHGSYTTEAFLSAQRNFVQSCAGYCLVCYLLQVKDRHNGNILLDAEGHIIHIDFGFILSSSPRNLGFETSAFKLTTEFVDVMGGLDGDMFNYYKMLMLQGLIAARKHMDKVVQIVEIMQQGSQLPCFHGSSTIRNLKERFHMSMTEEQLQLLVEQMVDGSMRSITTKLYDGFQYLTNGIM

`O=C(NC1(c2ccc(F)cc2)CC1)c1ccc2nc(N[C@H]3CC[C@H](O)CC3)c3nccn3c2c1`: the inhibition (in the test on PC-3; in test [1]; in test [2]; in test [3]; in [4]; in test [5]) was below 35% in each case. In addition, the inhibition was below 35% in test [6]; below 35% in test [7]; below 35% in [8]; below 35% in test [9]; below 35% in test [10]; 44.3% in [11]. This molecule also showed an inhibition in test [12] below 35%.

For `C[C@H](NC(=O)c1ccc2nc(N[C@H]3CC[C@H](O)CC3)c3nccn3c2c1)c1ccccc1`, the inhibition (in the test on PC-3; in test [1]; in [2]; in test [3]; in [4]; in test [5]) was below 35% throughout. Further, the inhibition in test [6], in test [7], in test [8], in test [9], in test [10] and in test [11] was below 35% in each case. The inhibition in test [12] is below 35%.

As to `O=C(O)c1ccc2nc(N[C@H]3CC[C@H](O)CC3)c3nccn3c2c1`, the inhibition was below 35% in the test on PC-3; below 35% in test [1]; below 35% in test [2]; 35% in test [3]; below 35% in test [4]; below 35% in [5]. Also, the inhibition was below 35% in test [6]; below 35% in [7]; below 35% in test [8]; 80.1% in [9]; below 35% in [10]; 81.2% in test [11]. This molecule also came in with an inhibition in test [12] of 99.2%.

Regarding `O=C(NC1(c2ccccc2)CC1)c1ccc2nc(N[C@H]3CC[C@H](O)CC3)c3nccn3c2c1`, the inhibition (in the test with PC-3; in test [1]; in test [2]; in test [3]; in test [4]; in [5]) was below 35% each time. Moreover, the inhibition in test [6], in test [7], in [8], in [9], in test [10] and in [11] was below 35% each time. This molecule also displayed an inhibition in [12] below 35%.

As to `O=C(N[C@H](CO)c1ccccc1)c1ccc2nc(N[C@H]3CC[C@H](O)CC3)c3nccn3c2c1`, the inhibition is below 35% with PC-3; below 35% in test [1]; below 35% in [2]; 45.6% in test [3]; below 35% in test [4]; below 35% in [5]. The inhibition in test [6], in [7], in [8], in [9], in test [10] and in [11] was below 35% in each case. The same molecule yielded an inhibition in [12] of 51%.

As to `C[C@@H](NC(=O)c1ccc2nc(N[C@H]3CC[C@H](O)CC3)c3nccn3c2c1)c1ccccc1`, the inhibition is below 35% in the test with PC-3; below 35% in test [1]; below 35% in [2]; 36.9% in [3]; below 35% in test [4]; below 35% in test [5]. The inhibition is below 35% in test [6]; below 35% in test [7]; below 35% in [8]; below 35% in test [9]; below 35% in test [10]; 42.6% in test [11]. In [12], the inhibition turned out to be 40.4%.

With `CC[C@@H](NC(=O)c1ccc2nc(N[C@H]3CC[C@H](O)CC3)c3nccn3c2c1)c1ccccc1`, the inhibition (in the test on PC-3; in test [1]; in test [2]; in [3]; in [4]; in [5]) was below 35% throughout. Further, the inhibition in test [6], in test [7], in [8], in test [9], in test [10] and in [11] was below 35% each time. In [12], this molecule gave an inhibition below 35%.

In the case of `CCC[C@@H](NC(=O)c1ccc2nc(N[C@H]3CC[C@H](O)CC3)c3nccn3c2c1)c1ccccc1`, the inhibition (with PC-3; in [1]; in test [2]; in [3]; in test [4]; in test [5]) was below 35% throughout. The inhibition in [6], in [7], in test [8], in test [9], in test [10] and in [11] was below 35% in each case. This molecule gave an inhibition in test [12] below 35%.

Take `NC(=O)c1ccc2nc(N[C@H]3CC[C@H](O)CC3)c3nccn3c2c1`: the inhibition in the test on PC-3 is below 35%; in [1] it was below 35%; in [2], below 35%; in test [3] it was below 35%; in test [4], 51.7%; in test [5], below 35%. Also, the inhibition in [6] was below 35%; in test [7], below 35%; in test [8], below 35%; in test [9], below 35%; in test [10], below 35%; in test [11], 91.3%. For the same molecule, the inhibition in [12] worked out at 94.2%.

Consider `CC(C)(NC(=O)c1ccc2nc(N[C@H]3CC[C@H](O)CC3)c3nccn3c2c1)c1ccccc1`, for which the inhibition (in the test on PC-3; in test [1]; in test [2]; in [3]; in test [4]; in test [5]) was below 35% throughout. In addition, the inhibition in test [6], in [7], in test [8], in [9], in [10] and in [11] was below 35% in each case. Also, in [12], the inhibition is below 35%.

As to `O=C(NC1(c2ccccc2)CCC1)c1ccc2nc(N[C@H]3CC[C@H](O)CC3)c3nccn3c2c1`, the inhibition (in the test with PC-3; in test [1]; in test [2]; in test [3]; in [4]; in test [5]) was below 35% in each case. Also, the inhibition in test [6], in test [7], in test [8], in test [9], in [10] and in test [11] was below 35% throughout. For the same molecule, the inhibition in [12] was below 35%.

In general, inhibition refers to the relative decrease from the control value, in per cent. A higher inhibition goes with a response far below the control.
